{
  "source": "patent US10640765B2",
  "about": "(priority 2016, dated 2020)",
  "key": {"[1]": {"test_system": "vaccinia virus", "assay_type": "cell-based"}, "[2]": {"test_system": "vaccinia virus (v7.5/tk viral DNA) in BSC-1 cells", "assay_type": "cell-based"}},
  "data": [
    {"smiles": "CO[C@H]1/C=C/O[C@@]2(C)Oc3c(C)c(O)c4c(O)c(c(/C=N/N5CCN(C)CC5)c(O)c4c3C2=O)NC(=O)/C(C)=C\\C=C\\[C@H](C)[C@H](O)[C@@H](C)[C@@H](O)[C@@H](C)[C@H](OC(C)=O)[C@@H]1C", "note": "[Rifampicin, rifampicin]", "values": [
      {"measurement": "overall efficiency of clone production with rifampicin versus without rifampicin", "setting": "[1]", "value": "approximately 10 fold"},
      {"measurement": "efficiency (number of recombinant clones)", "setting": "[2]", "value": "113,148 clones/100 mm^2 plate"}
    ]}
  ]
}
